For one data set, the system named is B16 mouse melanoma. In words: Cell growth inhibition (Table 22), B16. It counts as cell-based. To be noted: read-out: IC50 (drug dose which inhibits cell growth by 50%) B16. The procedure: (§1) The isolated compounds were tested against a number of human and non-human cancer cell lines. The human tumor cell lines were: MCF-7, MDA-MB-231 and T47D, breast cancer; DU145 and PC3, prostate cancer; CI80-13S, ovarian cancer; MM96L, D04, SkMel5, MM418c5 melanoma; HT29, colon cancer; K562 and HL60, leukemia. Mouse cell lines were the B16 mouse melanoma and LK2 UV-induced squamous cell carcinoma (SCC). Neonatal foreskin fibroblasts (NFF) were used as normal control cells. Cells were cultured at 37° C. in 5% carbon dioxide/air, in RPMI 1640 medium containing 10% fetal calf serum.

A further data set deals with prostate DU145. The experiment in a line: Additional in vitro activity: antitumor activity, DU145. In kind it is cell-based, human. Conditions: concentration with activity.
The test system of another data set is B16 melanoma. The experiment in a line: Inhibition of B16 melanoma growth in C57BL/6 mice. In kind it is in vivo. The method, then: After a preliminary experiment to determine the MTD in mice, C57BL/6 mice were implanted with B16 melanoma cells (0.5 million cells per site, 2 sites per mouse sc, 3 mice/group) and treatment commenced 24 hours later. For this initial study, EBI-23 was prepared by diluting an ethanol solution into saline, such that the final ethanol level was 2%. The cloudy solution thus obtained was injected intraperitoneally into mice every day for 7 days. Tumor size and body weight were measured over time.

The next data set concerns Drosophila melanogaster. The experiment in a line: DipteraTOX insecticidal bioassay. On the set-up: key: A value of A in DipG, Dip P or Dip H represents very active; a value of P represents active. To be noted: 250 μg per mL in agar. The method, then: DipteraTOX. DipteraTOX is referred to herein as DipG, DipP and DipH. DipG represents no grazing of larva. DipP represents no pupae formation and Dip H represents no hatching of flies. A value of A in DipG, Dip P or Dip H represents very active and a value of P represents active. In DipteraTox the fly eggs are applied to the surface of an agar matrix containing 250 μg per mL of the test chemical and allowed to hatch, develop and pupate for a period up of two weeks. The assay was monitored at two discrete times to determine the extent of grazing of the agar matrix at Week 1 and the presence of adult flies at Week 2. […] Drosophila melanogaster was utilised for this assay.

The test system of a further data set is PC3 prostate cancer. The experiment in a line: Cell growth inhibition (Table 22), PC3. It counts as cell-based. Conditions: Homo sapiens, PC-3; read-out: IC50 (drug dose which inhibits cell growth by 50%) PC3. The method, then: as §1
The next data set has as its system Trichophyton rubrum. In words: MycoTOX (Tr) antifungal bioassay. It counts as cell-based. The method, then:
MycoTOX (alternatively referred to herein as Tr) is a non-chromogenic bioassay used to detect activity against filamentous fungal pathogens of plants and animals. The bioassay features a solid phase agar base into which the test compound has been incorporated. As the growth patterns of filamentous fungi are readily apparent on the agar surface the extent of mycelial growth, sporulation (if relevant to the species under investigation) and colour changes with maturation are measured.
MycoTOX, involves a fungus (spore suspension or mycelial fragments) applied to the surface of an agar matrix containing the test chemical and allowed to grow for a period of up to a week (depending on species). The assay was monitored at two discrete times to identify key development phases in the life cycle (for example mycelial growth and extent of sporulation) and the active wells noted. The monitoring times were dependent on the fungal species under investigation.
The MycoTOX assays were carried out using Trichophyton rubrum.

Data set [1] deals with NS1 murine myeloma cell line. The experiment in a line: CyTOX (Cy) cytotoxicity bioassay. It counts as cell-based. To be noted: for Cy LD99: weight of chemical in last well with activity, real value may be lower. From the text:
CyTOX (alternatively referred to herein as Cy) is a microtitre plate bioassay use to identify potential antitumor actives. CyTOX is a chromogenic bioassay with broad application to a wide range of tumor and non-tumor cell lines. […] CyTOX features a liquid media into which the test compound has been incorporated together with a novel chromogen. As the cells grow and divide the chromogen is metabolised from purple in a single step process to a colourless metabolite. CyTOX is routinely undertaken using NS1 murine myeloma cell line as a guide to mammalian cell toxicity. Briefly, in CyTOX the cells were applied to the media containing the test chemical and allowed to grow for 72 hours. The assay was monitored at 24, 48 and 72 hours and the active wells identified.

The subject of the next data set is several cell lines. In words: Morphological and cell cycle effects (flow cytometry). In kind it is cell-based. To be noted: 24 hour treatment, 1 μg/mL. The text has this:
This tends to rule out targets such as PKC (prototype compound PMA), DNA damage (prototype cisplatin), kinases (prototype staurosporine), mitochondria or the plasma membrane (cell lysis).
This was not accompanied, however, by the typical rounded morphology of cells treated with tubulin ligands.

Data set [2] relates to human peripheral blood lymphocytes (PBMC) with gamma-irradiated LCL. In words: Inhibition of the mixed lymphocyte reaction (MLR). It counts as cell-based. Conditions: [3H]-thymidine on Day 4. The method, then:
(§2) Gamma-irradiated lymphoblastoid cells (LCL, Esptein-Barr virus-transformed B-cells; 17,000) were added to human peripheral blood lymphocytes (PBMC; 50,000 per microtitre well), then the drug, incubated at 37 C as above and labeled with [3H]-thymidine on Day 4. Cells were lysed and washed onto glass fibre mats for scintillation counting. The same drug concentrations were tested for direct toxicity by assay on control LCL (10,000 cells/well).
The MLR measures the ability of normal human T-cells to undergo a proliferative response to allo antigens expressed by a non-proliferating B-cell line. […] This was not due to general toxicity because the growth of control LCLs was unaffected.

Data set [3] has as its system control LCL (lymphoblastoid cells). The experiment in a line: Direct toxicity on control LCL. In kind it is cell-based, human. To be noted: same drug concentrations as MLR (1 μg/mL). The method, then:
as §2

The test system of another data set is a human tumor cell line. In words: Preliminary screen of growth-inhibiting activity of derivatised EBI-23, EBI-24, EBI-25. In kind it is cell-based. To be noted: growth inhibition. The method, then:
A series of derivatisation reactions were conducted on 1 mg amounts of EBI-23, EBI-24, and EBI-25. Mass spectra were run to confirm the nature of the derivatives but the product(s) weren't purified for this preliminary screen of growth-inhibiting activity in a human tumor cell line. The results were compared on the assumption that no losses occurred during derivatisation.

In brackets after ≈: the same amount, converted by molar mass.

As for `CCCCCCCCCCCCCC(O)CC1CC(O)CC2(CC3OC(=O)C=CC3O2)O1` (stereo not shown) [EBI-23], the IC50 in the data set on B16 mouse melanoma was determined as 0.5 µg/mL (≈ 1.1 µM); in the data set with PC3 prostate cancer, 1 µg/mL (≈ 2.21 µM). For the same compound, the “antitumor activity against prostate DU145 at” value in the data set with prostate DU145 worked out at 3 µg/mL. Besides, the B16 growth result was “measurable response” in the data set on B16 melanoma (80 μg (per mouse per day) intraperitoneally) and “significant reduction” with B16 melanoma (250 μg/mouse/day intraperitoneally). The body weight result in the data set on B16 melanoma (higher dose (250 μg/mouse/day)) is given as “some weight loss”. Moreover, the tolerability of regime entry in the data set with B16 melanoma (intraperitoneal daily dosing, C57BL/6 mice) is recorded as “tolerated this regime well”. Also, the “DipP (no pupae formation)” value in the data set with Drosophila melanogaster is on record as “P”. In addition, the “Tr Titre” value in the data set with Trichophyton rubrum stood at 0. Further, the “Cy Titre” value in [1] is listed as 256. For the same compound, the “Cy LD99” value was 0.24 µg/mL in [1] (listed as EB77.LA4.92-100), 0.78 µg/mL in data set [1] (listed as EB116.LA3.31-27/32) and 0.78 µg/mL in data set [1] (listed as EB116.LA3.60-40/42). Further, the “DNA fragments (apoptosis)” value in the data set on several cell lines is reported as “No DNA fragments were detected”. Also, in the data set on several cell lines, the “cell cycle effect by flow cytometry” value is given as “variable degree of G2/M arrest”. Besides, the “concentration found to inhibit the MLR” value in [2] is 1 µg/mL. In data set [3], the “growth of control LCLs” value is recorded as “unaffected”.
For the compound `CC/C=C/CCCCCCCCCCCC(O)CC1CC(O)CC2(CC3OC(=O)C=CC3O2)O1` (stereo not shown) [EBI-24], the “antitumor activity against prostate DU145 at” value in the data set on prostate DU145 stood at 10 µg/mL. Moreover, in the data set on Drosophila melanogaster, the “DipH (no hatching of flies)” value is listed as “P/P” and the “DipP (no pupae formation)” value is recorded as “P/P”. In the data set with a human tumor cell line, the “fold less potent than EBI-23” value is 10 fold. For the same compound, the “Cy LD99” value in data set [1] was 0.78 µg/mL.

For the origin of these results see patent publication US8921414B2, “Spiroketals” (EcoBiotics Ltd, priority 2005, dated 2014).
